# Patent US20070036776A1, “Bacterial signaling molecules that down-regulate pathogenic bacterial virulence properties” (priority 2004, published 2007)
# Test system: human peripheral blood mononuclear cells (PBMCs)
# Assay type: cell-based
Substance,concentration of maximum stimulation [ng/mL],half maximal proliferation,induction of T cell proliferation
toxic shock syndrome toxin-1 [TSST-1],50,approximately 500 pg/mL,–
staphylococcal superantigen-like protein 11 [SSL11],–,–,not able to induce
